In paper PMC9127185, “A Pyridazinone Compound for Effectively Treating Non-alcoholic Steatohepatitis by Targeting THRβ” (Frontiers in Chemistry, 2022):
“Also recorded” adds a separate entry of the source.

Legend:
acute liver injury model = assay: Acute liver injury model; format: in vivo, rat; settings: in words, no data shown
THRβ = target: T1, THRβ (Homo sapiens, UniProt P10828); assay: Selectivity and activity for THRβ; settings: in words, no data shown
T1 sequence (P10828 1-461): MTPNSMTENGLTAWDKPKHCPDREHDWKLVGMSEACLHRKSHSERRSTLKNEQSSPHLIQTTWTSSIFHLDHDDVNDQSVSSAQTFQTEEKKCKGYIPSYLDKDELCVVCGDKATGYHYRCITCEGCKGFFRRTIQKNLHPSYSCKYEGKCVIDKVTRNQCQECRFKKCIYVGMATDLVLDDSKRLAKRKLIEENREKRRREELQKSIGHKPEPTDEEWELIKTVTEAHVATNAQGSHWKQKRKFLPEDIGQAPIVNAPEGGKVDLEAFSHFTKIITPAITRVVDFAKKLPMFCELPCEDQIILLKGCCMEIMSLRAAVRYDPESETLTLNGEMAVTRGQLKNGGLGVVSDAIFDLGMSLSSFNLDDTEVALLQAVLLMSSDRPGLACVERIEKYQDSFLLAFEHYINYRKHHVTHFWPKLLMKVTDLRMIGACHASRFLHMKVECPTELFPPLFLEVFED

[1] = Stability of liver microsomes study (mouse); format: in vitro ADME; settings: mouse liver microsomes 0.50 mg/ml, NADPH-generating system, 37°C, 0-90 min
Protocol: Hypersil GOLD C18 column (4.6 × 150 mm, 5 μm, Thermo). A 0.025% ammonia aqueous solution in water (solvent A) and acetonitrile (solvent B) were used as mobile phases with gradient elution. The gradient was as follows: 0.01 min, 15% B; 5 min, 20% B; 12 min, 80% B; 16 min, 80% B; 16.01 min, 15% B; 19 min, 15% B; and 19.01 min, stopped. The timing interval was 19 min, and the flow rate was set at 1 ml/min.
The incubation system was carried out in 0.05 M Tris/KCl buffer (PH = 7.4) and included the following: pyrazinone compounds dissolved with dimethyl sulfoxide (DMSO), mouse liver microsomes and human liver microsomes at 0.50 mg/ml, 1.30 mM nicotinamide adenine dinucleotide sodium phosphate (NADP), 3.30 mM glucose-6-phosphate disodium salt (G-6-P), 0.40 units/mL glucose-6-phosphate dehydrogenase (G-6-PDH), and 3.30 mM magnesium chloride. […] After preincubation for 3 min in an 850-rpm blender (37°C), liver microsomes were added to initiate the incubation reaction (37°C). The incubation time was 0, 30, 60, and 90 min. After incubation, an equal volume of cold acetonitrile was added to stop the reaction, and an internal standard (0.05 mg/ml acetaminophen solution) was added. The samples were centrifuged at 10,000 rpm for 10 min to precipitate proteins ([Day et al., 2017]; [Manne et al., 2018]), and the 10 µL of the supernatant was taken for HPLC analysis.

NASH = NASH pharmacodynamic study; format: in vivo; settings: in words, no data shown

Metabolic stability / metabolite formation in liver microsomes [1]: no metabolites; also recorded: stable
SMILES: N#Cc1cn(-c2cc(Cl)c(Oc3cc(C4CCC4)c(=O)[nH]n3)c(Cl)c2)c(=O)[nH]c1=O [YWS01125, 1-(3,5-dichloro-4-((5-cyclobutyl-6-oxo-1,6-dihydropyridazin-3-yl)oxy)phenyl)-2,4-dioxo-1,2,3,4-tetrahydropyrimidine-5-carbonitrile]
Effect in acute liver injury model (acute liver injury model): hepatoprotective effect
Selectivity and activity for THRβ (THRβ): excellent activity; also recorded: best selectivity and activity
Effect on NASH (NASH): alleviation of NASH
